Tests used:
APESV = assay: greenhouse pre-emergence herbicidal test; assay type: in vivo, Apera spica-venti; conditions: pre-emergence method, scale from 0 to 100
From the text: (§1) The seeds of the test plants were sown separately for each species. For the pre-emergence treatment, the active ingredients, which had been suspended or emulsified in water, were applied directly after sowing by means of finely distributing nozzles. The containers were irrigated gently to promote germination and growth and subsequently covered with transparent plastic hoods until the plants had rooted. This cover caused uniform germination of the test plants, unless this had been impaired by the active ingredients. Depending on the species, the plants were kept at 10-25° C. or 20-35° C., respectively. The test period extended over 2 to 4 weeks. During this time, the plants were tended, and their response to the individual treatments was evaluated. Evaluation was carried out using a scale from 0 to 100. 100 means no emergence of the plants, or complete destruction of at least the aerial moieties, and 0 means no damage, or normal course of growth. […] The plants used in the greenhouse experiments were of the following species: [table]

ECHCG [1] = assay: greenhouse pre-emergence herbicidal test; assay type: in vivo, Echinocloa crus-galli; conditions: pre-emergence method, scale from 0 to 100
From the text: as §1

ALOMY = assay: greenhouse post-emergence herbicidal test; assay type: in vivo, Alopercurus myosuroides; conditions: post-emergence method, scale from 0 to 100
From the text: (§2) The seeds of the test plants were sown separately for each species. For the post-emergence treatment, the test plants were first grown to a height of 3 to 15 cm, depending on the plant habit, and only then treated with the active ingredients which had been suspended or emulsified in water. For this purpose, the test plants were either sown directly and grown in the same containers, or they were first grown separately as seedlings and transplanted into the test containers a few days prior to treatment. Depending on the species, the plants were kept at 10-25° C. or 20-35° C., respectively. The test period extended over 2 to 4 weeks. During this time, the plants were tended, and their response to the individual treatments was evaluated. Evaluation was carried out using a scale from 0 to 100. 100 means no emergence of the plants, or complete destruction of at least the aerial moieties, and 0 means no damage, or normal course of growth. […] The plants used in the greenhouse experiments were of the following species: [table]

ECHCG [2] = assay: greenhouse post-emergence herbicidal test; assay type: in vivo, Echinocloa crus-galli; conditions: post-emergence method, scale from 0 to 100
From the text: as §2

AVEFA = assay: greenhouse post-emergence herbicidal test; assay type: in vivo, Avena fatua; conditions: post-emergence method, application rate 1000 g/ha, scale from 0 to 100
From the text: as §2

Question: `N#Cc1ccccc1-c1cnc(C2CC2)nc1C(=O)O` [example 154] was tested. Which “herbicidal activity against APESV” value (APESV; application rate 500 g/ha) did it give?
Answer: very good (a very good herbicidal activity is given at values of at least 85)

Question: What about the “herbicidal activity against ECHCG” value (ECHCG [1]; application rate 500 g/ha) of the same compound?
Answer: very good (a very good herbicidal activity is given at values of at least 85)

Question: And the “herbicidal activity against ALOMY” value (ALOMY; application rate 500 g/ha)?
Answer: very good (a very good herbicidal activity is given at values of at least 85)

Question: And the “herbicidal activity against ECHCG” value (ECHCG [2]; application rate 500 g/ha)?
Answer: good (A good herbicidal activity is given at values of at least 70)

Question: `COc1ccc(C)c(-c2cnc(C3CC3)nc2C(=O)O)c1` [example 166] was tested. Which “herbicidal activity against APESV” value (APESV; application rate 500 g/ha) did it give?
Answer: very good (a very good herbicidal activity is given at values of at least 85)

Question: And the “herbicidal activity against ECHCG” value (ECHCG [1]; application rate 500 g/ha)?
Answer: very good (a very good herbicidal activity is given at values of at least 85)

Question: What about the “herbicidal activity against ALOMY” value (ALOMY; application rate 500 g/ha) of the same compound?
Answer: good (A good herbicidal activity is given at values of at least 70)

Question: What about the “herbicidal activity against ECHCG” value (ECHCG [2]; application rate 500 g/ha) of the same compound?
Answer: good (A good herbicidal activity is given at values of at least 70)

Question: What does the source list for `Cc1c(F)cccc1-c1cnc(C2CC2)nc1C(=O)O` [example 170]?
Answer: herbicidal activity against APESV (APESV; application rate 1000 g/ha): very good (a very good herbicidal activity is given at values of at least 85); herbicidal activity against ECHCG (ECHCG [1]; application rate 1000 g/ha): very good (a very good herbicidal activity is given at values of at least 85); herbicidal activity against ALOMY (ALOMY; application rate 1000 g/ha): very good (a very good herbicidal activity is given at values of at least 85); herbicidal activity against ECHCG (ECHCG [2]; application rate 1000 g/ha): good (A good herbicidal activity is given at values of at least 70)

Question: What does the source list for `COC(=O)c1nc(C2CC2)ncc1-c1c(Cl)cccc1OC` [example 202]?
Answer: herbicidal activity against APESV (APESV; application rate 1000 g/ha): good (A good herbicidal activity is given at values of at least 70); herbicidal activity against ECHCG (ECHCG [1]; application rate 1000 g/ha): very good (a very good herbicidal activity is given at values of at least 85); herbicidal activity against ALOMY (ALOMY; application rate 1000 g/ha): very good (a very good herbicidal activity is given at values of at least 85); herbicidal activity against ECHCG (ECHCG [2]; application rate 1000 g/ha): good (A good herbicidal activity is given at values of at least 70)

Question: With `COC(=O)c1nc(C2CC2)ncc1-c1ccccc1C#N` [example 217] as the compound, how does the “herbicidal activity against APESV” value (APESV; application rate 500 g/ha) read?
Answer: very good (a very good herbicidal activity is given at values of at least 85)

Question: What about the “herbicidal activity against ECHCG” value (ECHCG [1]; application rate 500 g/ha) of the same compound?
Answer: very good (a very good herbicidal activity is given at values of at least 85)

Question: What about the “herbicidal activity against ALOMY” value (ALOMY; application rate 500 g/ha) of the same compound?
Answer: good (A good herbicidal activity is given at values of at least 70)

Question: And the “herbicidal activity against ECHCG” value (ECHCG [2]; application rate 500 g/ha)?
Answer: very good (a very good herbicidal activity is given at values of at least 85)

Question: With `COC(=O)c1nc(C2CC2)ncc1-c1cc(OC)ccc1C` [example 229] as the compound, how does the “herbicidal activity against APESV” value (APESV; application rate 500 g/ha) read?
Answer: very good (a very good herbicidal activity is given at values of at least 85)

Question: What about the “herbicidal activity against ECHCG” value (ECHCG [1]; application rate 500 g/ha) of the same compound?
Answer: very good (a very good herbicidal activity is given at values of at least 85)

Question: And the “herbicidal activity against ALOMY” value (ALOMY; application rate 500 g/ha)?
Answer: good (A good herbicidal activity is given at values of at least 70)

Question: What about the “herbicidal activity against ECHCG” value (ECHCG [2]; application rate 500 g/ha) of the same compound?
Answer: very good (a very good herbicidal activity is given at values of at least 85)

Question: What does the source list for `COC(=O)c1nc(C2CC2)ncc1-c1ccc(C)cc1C` [example 231]?
Answer: herbicidal activity against APESV (APESV; application rate 1000 g/ha): very good (a very good herbicidal activity is given at values of at least 85); herbicidal activity against ECHCG (ECHCG [1]; application rate 1000 g/ha): very good (a very good herbicidal activity is given at values of at least 85); herbicidal activity against ALOMY (ALOMY; application rate 1000 g/ha): good (A good herbicidal activity is given at values of at least 70); herbicidal activity against ECHCG (ECHCG [2]; application rate 1000 g/ha): good (A good herbicidal activity is given at values of at least 70)

Question: Which “herbicidal activity against APESV” value (APESV; application rate 1000 g/ha) does the source give for `COC(=O)COC(=O)c1nc(C2CC2)ncc1-c1ccccc1Cl` [example 261] here?
Answer: very good (a very good herbicidal activity is given at values of at least 85)

Question: And the “herbicidal activity against ECHCG” value (ECHCG [1]; application rate 1000 g/ha)?
Answer: very good (a very good herbicidal activity is given at values of at least 85)

Question: And the “herbicidal activity against ALOMY” value (ALOMY; application rate 1000 g/ha)?
Answer: very good (a very good herbicidal activity is given at values of at least 85)

Question: And the “herbicidal activity against ECHCG” value (ECHCG [2]; application rate 1000 g/ha)?
Answer: very good (a very good herbicidal activity is given at values of at least 85)

Question: For `COC(=O)c1nc(C2CC2)ncc1-c1ccccc1SC(F)(F)F` [example 321], which “herbicidal activity against AVEFA” value (AVEFA) is on record?
Answer: herbicidal activity

Reference: patent US10420341B2, “Herbicidal phenylpyrimidines” (BASF SE, priority 2015, dated 2019)
